The values that follow come from US10149472B2, “Chitin oligomers for use in promoting non-leguminous plant growth and development” (Wisconsin Alumni Research Foundation, priority 2015, dated 2018).

Experiment [1] has as its system rice trichoblasts (root hair cells). In words: Calcium spiking (YC3.6 imaging) in rice trichoblasts (root hair cells). Format: cell-based, Oryza sativa cv Nipponbare. The note with it: 10^−5 M, FIG. 5, FIG. 6. As for the experimental part: Mycorrhizal induced calcium responses were measured as described previously (14). Transgenic Oryza sativa Nipponbare lines carrying Yellow Cameleon 3.6 (YC3.6) FRET-based calcium sensor was used to detect calcium spiking. YC3.6 was imaged on a Nikon Eclipse Ti inverted microscope (Nikon, Japan) equipped with an OptoLED Illuminator (model OptoLED, Cairn Research Ltd, UK). YC3.6 was excited at a wavelength of 455 nm using a royal blue LED and was captured with a charge-coupled device (CCD) camera (model RETIGA-SRV, Qimaging, Canada). Emitted fluorescence was separated by an image splitter with a dichroic mirror (model Optosplit II, Cairn Research Ltd, UK) and then passed through a fluorescence filter set. Images were collected every 5 seconds with 1-second exposure and analyzed using MetaFluor (Molecular Devices, Sunnyvale, Calif., USA).
Both LCOs and COs are Required to Induce Calcium Spiking in Trichoblasts. Rhizobia colonize legumes by root hair cells (trichoblasts), whereas AM fungi colonize roots via non-root hair epidermal cells (atrichoblasts). Thus, these different root epidermal cell types may respond differently to COs and LCOs. To test this, we directly compared trichoblast and atrichoblast responses using high concentrations of CO4 in rice. Calcium oscillations observed in rice following treatments of CO4 were restricted to atrichoblasts, with no responses in trichoblasts even with CO4 treatments of 10^−5 M (FIG. 5). This preferential nature of rice atrichoblasts to respond to the AM signals is consistent with a preference for AM fungi to colonize the root via atrichoblasts (26). It is possible that either AM fungi produce signalling molecules other than S-LCO, NS-LCO and CO4 that induce calcium oscillations in rice trichoblasts, or that the mix of signalling molecules is important. To test this, we assessed induction of calcium oscillations by an equimolar mix of 10^−5 M S-LCO, NS-LCO, and CO4.

The subject of another experiment is rice. In words: Root architecture modification in wild-type rice after submersion treatment. The conditions noted are these: 10^−8M, 24 hours submersion, assessed after two weeks, FIG. 3. It is filed as in vivo, Oryza sativa cv Nipponbare. On the procedure:
(§1) Oryza sativa cv Nipponbare wild-type and Tos17 insertion lines in POLLUX (line NC6453) and DMI3 were used for root architecture experiments (12, 13). Seeds were prepared by sterilizing with 2% bleach for 20 minutes, followed by 3, 5-minute rinses with sterile water. The sterile seeds were then imbibed overnight. Seeds were then plated on damp germination paper in Petri plates under sterile conditions and germinated in the dark at 25 degrees for 7 days. Germinated rice plants were then plated on Fahraeus medium on germination paper and grown at 22 degrees under constant light. After 5 days the plants were treated with 10^−8M LCOs and COs for 24 hours by submersion and re-plated onto Fåhræus Medium 1.5% agar plates (0.132 g/L CaCl2, 0.12 g/L MgSO4.7H2O, 0.1 g/L KH2PO4, 0.075 g/L Na2HPO4.2H2O, 5 mg/L Fe-citrate, and 0.07 mg/L each of MnCl2.4H2O, CuSO4.5H2O, ZnCl2, H3BO3, and Na2MoO4.2H2O, adjusted to pH 6.5 before autoclaving). As all signals were suspended in 50% ethanol, the appropriate concentration of ethanol in sterile DI water served as a control. Root system architecture was assessed after 2 weeks.
(§2) Total lateral roots of rice were enumerated manually two weeks after application of 10^−8M COs and LCOs. As COs and LCOs were suspended in 50% ethanol, the control is sterile deionized water containing the appropriate amount of ethanol. Lateral roots were defined as large and fine lateral roots emerging from crown roots, as well as fine lateral roots emerging from large lateral roots. Root system length was measured starting from the root-shoot junction to the tip of the longest root. The number of crown roots was assessed manually as those roots emerging from the root-shoot junction. Root type characterizations were based upon the descriptions in Gutjahr et al. (19). Data were assessed for normality using the Shapiro-Wilk test (α=0.01), and statistical significance was determined using a paired t-test assuming unequal variances, or a Mann-Whitney-Wilcoxon Test if normality was not observed (α=0.05). All statistical analysis was conducted using the R software package (20).

The test system of experiment [2] is rice knock-out mutants of pollux and dmi3. The experiment in a line: Root architecture modification in rice Ospollux and Osdmi3 mutants. The conditions noted are these: 10^−8M; Ospollux and Osdmi3 mutants vs wild-type; FIG. 4. Format: in vivo, Oryza sativa cv Nipponbare. As for the experimental part:
as §1
as §2, with “Lateral roots were defined as large and fine lateral roots emerging from crown roots, as well as fine lateral roots emerging from large lateral roots.” left out, “Root type characterizations were based upon the descriptions in Gutjahr et al. (19).” left out, “All statistical analysis was conducted using the R software package (20).” left out
To assess the role of the common symbiotic pathway in regulating root architecture modifications in response to purified LCOs and COs, we quantified root responses to mycorrhizal signals in rice knock-out mutants of pollux (upstream of calcium spiking) and dmi3 (downstream of calcium spiking).

A further experiment has as its system M. truncatula. In words: Lateral root emergence in M. truncatula. Format: in vivo, Medicago truncatula. The note with it: 10^−7 M; fold induction relative to the control; FIG. 7. On the procedure:
M. truncatula roots were treated with 10^−7 M CO4 or 10^−7 M NS-LCO and the effect on lateral root emergence was measured. The numbers in parentheses indicate the number of plants analyzed. The significance of the difference to the […] control plants, as measured using a t-test, is indicated. The treatments are measured as fold induction relative to the control. Error bars represent the standard error.
Accordingly, the disclosed method is limited in scope to treating non-leguminous plants, or seeds, seedlings or plant parts thereof.

Take LCO-IV (C16:0 or C18:1) [NS-LCO]: the “calcium spiking in trichoblasts” value in experiment [1] is “did not induce calcium spiking”. In the experiment with rice, the crown root growth entry is “promoted”, the lateral root growth entry is recorded as “promoted” and the root system length result is on record as “enhanced”. The “dependence of overall root length increase on POLLUX / DMI3” value in experiment [2] was “dependent upon both POLLUX and DMI3”. The lateral root emergence result in the experiment with M. truncatula is “promotion”.

Turning to LCO-IV (C16:0, S or C18:1, S) [S-LCO], the “calcium spiking in trichoblasts” value in experiment [1] is recorded as “did not induce calcium spiking”. Besides, in the experiment with rice, the crown root growth entry is “promoted” and the lateral root growth result is “promoted”.
